Results as given in patent publication US6207393A, “Inhibition of intracellular signal transduction by 14-3-3-binding peptides” (Washington University, priority 1999, dated 2001).
Values joined by “and” are separate entries in the source; they are usually repeats but may differ in a detail not shown here. Identical values can stand only once. Where a SMILES comes first, the peptide text is derived from it. [ ]: non-standard residue; d: D form. pS = N[C@@H](COP(=O)(O)O)C(=O)O

Key:
14-3-3 beta = molecular target: T1, 14-3-3 beta (Homo sapiens, UniProt P31946); experiment: SPR competitive inhibition of 14-3-3 beta binding to phosphorylated Raf-259 peptide; conditions: isoform beta
T1 construct: made in house; host or cells: E. coli DH5α (vector pGEX-KT)
T1 sequence (P31946 1-246): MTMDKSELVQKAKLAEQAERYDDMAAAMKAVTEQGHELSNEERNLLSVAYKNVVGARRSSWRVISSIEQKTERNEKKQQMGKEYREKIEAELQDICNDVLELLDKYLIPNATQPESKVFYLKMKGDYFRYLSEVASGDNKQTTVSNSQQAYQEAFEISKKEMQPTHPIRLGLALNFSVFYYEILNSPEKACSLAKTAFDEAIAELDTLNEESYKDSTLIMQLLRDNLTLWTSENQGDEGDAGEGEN
Description: (§1) The ability of each peptide to inhibit binding of 14-3-3 zeta to the phosphorylated peptide was then tested in a range of concentrations between 1 and 50 μM. 14-3-3 zeta was prepared according to the methods in Example 1 and binding affinities and specificities were determined using the peptides in Table 2. The 14-3-3 zeta fusion proteins (0.5-1.0 μM) were pre-incubated with a given peptide at concentrations between 1 μM and 50 μM. 14-3-3 zeta was then infused across a sensor chip surface which had been previously coupled with the phosphorylated Raf-259 peptide (SEQ ID NO: 4). IC50 values were determined by plotting the concentration of competitor peptide required to achieve a 50% reduction in equilibrium binding.
(§2) There are seven known isoforms of 14-3-3 which form homo- and heterodimers in vivo. If different isoforms of 14-3-3 could bind to proteins with distinct specificities, heterodimeric forms of 14-3-3 might function as modular linker proteins, bringing together different proteins into a single complex. We were, therefore, interested in determining whether different 14-3-3 isoforms recognize phosphoserine in a sequence specific fashion. This hypothesis was tested by expressing and purifying three other 14-3-3 isoforms, eta, beta and tau, and measuring their affinity towards the panel of phosphorylated peptides generated above. Using the Surface Plasmon Resonance method, the "on" and "off" rates for 14-3-3 binding to the phosphorylated Raf-259 peptide were calculated (Table 6).
(§3) Competitive inhibition with the mutated phosphorylated Raf-1 peptides was used to determine whether their specificities were similar (Table 7). In each case, the calculated IC50 s were very similar to those calculated for 14-3-3 zeta.

14-3-3 tau = molecular target: T2, 14-3-3 tau (Homo sapiens, UniProt P27348); experiment: SPR competitive inhibition of 14-3-3 tau binding to phosphorylated Raf-259 peptide; conditions: isoform tau
T2 construct: made in house; host or cells: E. coli DH5α (vector pGEX-KT)
T2 sequence (P27348 1-245): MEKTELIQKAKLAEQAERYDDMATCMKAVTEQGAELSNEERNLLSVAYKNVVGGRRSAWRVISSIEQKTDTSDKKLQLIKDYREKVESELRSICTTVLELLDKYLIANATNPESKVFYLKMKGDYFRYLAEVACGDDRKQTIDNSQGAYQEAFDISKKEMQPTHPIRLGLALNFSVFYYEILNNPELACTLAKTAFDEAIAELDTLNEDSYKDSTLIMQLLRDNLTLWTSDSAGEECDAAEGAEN
Description: as §1, §2, §3

14-3-3 zeta = molecular target: T3, 14-3-3 zeta (Homo sapiens, UniProt P63104); experiment: SPR competitive inhibition of 14-3-3 zeta binding to chip-coupled phosphorylated Raf-259 peptide; conditions: 14-3-3 zeta 0.5-1.0 μM; competitor 1-50 μM; relative affinity only
T3 construct: made in house; host or cells: E. coli DH5α (vector pGEX-KT)
T3 sequence (P63104 1-245): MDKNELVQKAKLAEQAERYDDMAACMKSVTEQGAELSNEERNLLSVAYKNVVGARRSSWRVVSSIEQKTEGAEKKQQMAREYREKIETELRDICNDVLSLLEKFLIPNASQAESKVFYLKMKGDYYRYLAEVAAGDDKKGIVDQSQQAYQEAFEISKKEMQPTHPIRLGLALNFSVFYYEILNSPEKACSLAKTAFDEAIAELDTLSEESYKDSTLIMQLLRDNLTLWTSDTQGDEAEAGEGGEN
Description: as §1

14-3-3 eta = molecular target: T4, 14-3-3 eta (Homo sapiens, UniProt Q04917); experiment: SPR competitive inhibition of 14-3-3 eta binding to phosphorylated Raf-259 peptide; conditions: isoform eta
T4 construct: made in house; host or cells: E. coli DH5α (vector pGEX-KT)
T4 sequence (Q04917 1-246): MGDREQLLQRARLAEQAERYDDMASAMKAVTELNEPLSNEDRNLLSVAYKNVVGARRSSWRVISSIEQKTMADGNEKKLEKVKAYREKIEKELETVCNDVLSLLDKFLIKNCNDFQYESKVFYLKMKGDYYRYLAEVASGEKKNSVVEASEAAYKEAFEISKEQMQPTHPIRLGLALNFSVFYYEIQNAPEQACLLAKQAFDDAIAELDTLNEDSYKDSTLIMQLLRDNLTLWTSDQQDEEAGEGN
Description: as §1, §2, §3

IC50 (14-3-3 beta)	IC50 (14-3-3 tau)	IC50 (14-3-3 zeta)	IC50 (14-3-3 eta)	Structure (SMILES)
24 µM	27 µM	~25 µM and 25 µM	20 µM	CSCC[C@H](NC(=O)[C@H](Cc1c[nH]cn1)NC(=O)[C@@H](NC(=O)[C@H](CC(N)=O)NC(=O)[C@H](C)NC(=O)[C@@H](NC(=O)[C@H](COP(=O)(O)O)NC(=O)[C@@H](NC(=O)[C@H](CO)NC(=O)[C@H](CCCNC(=N)N)NC(=O)[C@H](CCC(N)=O)NC(=O)[C@H](CCCNC(=N)N)NC(=O)[C@H](CCC(N)=O)NC(=O)[C@H](CO)NC(=O)[C@@H](N)CC(C)C)[C@@H](C)O)[C@@H](C)O)C(C)C)C(=O)O [PA] (H-LSQRQRST[pS]TANVHM-OH)
> 50 µM	> 50 µM	> 50 µM	> 50 µM	CC(C)C[C@H](N)C(=O)N[C@@H](CO)C(=O)N[C@@H](CCC(N)=O)C(=O)N[C@@H](CCCNC(=N)N)C(=O)N[C@@H](CCC(N)=O)C(=O)N[C@@H](CCCNC(=N)N)C(=O)N[C@@H](COP(=O)(O)O)C(=O)N[C@H](C(=O)N[C@@H](COP(=O)(O)O)C(=O)N[C@H](C(=O)N1CCC[C@H]1C(=O)N[C@@H](CC(N)=O)C(=O)N[C@H](C(=O)N[C@@H](Cc1c[nH]cn1)C(=O)N[C@@H](C)C(=O)O)C(C)C)[C@@H](C)O)[C@@H](C)O [pS-Raf-257,259] (H-LSQRQR[pS]T[pS]TPNVHA-OH)
> 50 µM	> 50 µM	> 50 µM	> 50 µM	CC(C)C[C@H](N)C(=O)N[C@@H](CO)C(=O)N[C@@H](CCC(N)=O)C(=O)N[C@@H](CCCNC(=N)N)C(=O)N[C@@H](CCC(N)=O)C(=O)N[C@@H](CCCNC(=N)N)C(=O)N[C@@H](COP(=O)(O)O)C(=O)N[C@H](C(=O)N[C@@H](CO)C(=O)N[C@H](C(=O)N1CCC[C@H]1C(=O)N[C@@H](CC(N)=O)C(=O)N[C@H](C(=O)N[C@@H](Cc1c[nH]cn1)C(=O)N[C@@H](C)C(=O)O)C(C)C)[C@@H](C)O)[C@@H](C)O [pS-Raf-257] (H-LSQRQR[pS]TSTPNVHA-OH)

Structure (SMILES)	IC50 (14-3-3 beta)	IC50 (14-3-3 tau)	IC50 (14-3-3 zeta)	IC50 (14-3-3 eta)
CC(C)C[C@H](N)C(=O)N[C@@H](CO)C(=O)N[C@@H](CCC(N)=O)C(=O)N[C@@H](C)C(=O)N[C@@H](CCC(N)=O)C(=O)N[C@@H](C)C(=O)N[C@@H](CO)C(=O)N[C@H](C(=O)N[C@@H](COP(=O)(O)O)C(=O)N[C@H](C(=O)N1CCC[C@H]1C(=O)N[C@@H](CC(N)=O)C(=O)N[C@H](C(=O)N[C@@H](Cc1c[nH]cn1)C(=O)N[C@@H](C)C(=O)O)C(C)C)[C@@H](C)O)[C@@H](C)O [254/256RA] (H-LSQAQAST[pS]TPNVHA-OH)	> 50 µM	> 50 µM	> 50 µM	> 50 µM
